Ends that are not written are not given here.
Tests used:
[1] = molecular target: T1, rat orphan 7TM GPCR (OT7T022, GPR147, NPFFR1) (Rattus norvegicus, UniProt Q9EP86); conditions: synthetic RFRPs; cited from earlier work
T1 construct: expressed in transfected cells; host or cells: CHO cells

[2] = system: Npvf mRNA in hypothalamus; assay: CL 316,243 or saline administration for 7 days at 29° C., Npvf mRNA in hypothalamus by qRT-PCR; assay type: in vivo, mice (C57BL/6J); conditions: one week administration, 1 mg/kg of body weight, subcutaneous, mice at 29° C.
Protocol: Total RNA was isolated from adipose tissue, liver and hypothalamus using TRI Reagent and BCP phase separation reagent (Molecular Research Center Inc. Cincinnati, Ohio, United States). RNA was further purified by using the RNAeasy minikit (QIAGEN, Valencia, Calif., United States) and stored at −80° C. in RNase-free H2O with addition of SUPERase-In (Ambion, Austin, Tex., United States) for RNase protection. Quality and quantity of RNA was determined using UV spectrophotometry (Nanodrop) and agarose gel visualization of intact RNA. Quantitative RT-PCR using TaqMan probes and primers (Applied Biosystems, Foster City, Calif., United States) was performed with standard curves generated using pooled RNA isolated from corresponding tissues collected from eight 8 week old C57BL/6J.+/+ mice. Probe and primer sequences used to perform the analyses are available upon request. All the gene expression data were normalized to the level of cyclophilin b.
To establish the influence of different ambient temperature on Npvf expression mice were kept in climate-controlled rodent incubators. To evaluate the effects of the β adrenergic receptor agonist on Ucp1 and Npvf, thermoneutrally acclimated mice were injected subcutaneously with 1 mg kg^−1 […] or saline for 7 days.
All mice used in the following studies were adult wild-type C57BL/6J+/+ mice. […]

NPFFR1 = NPFFR1 (Homo sapiens, UniProt Q9GZQ6); conditions: cited from earlier work
Chain of NPFFR1 (Q9GZQ6 whole entry, species assumed): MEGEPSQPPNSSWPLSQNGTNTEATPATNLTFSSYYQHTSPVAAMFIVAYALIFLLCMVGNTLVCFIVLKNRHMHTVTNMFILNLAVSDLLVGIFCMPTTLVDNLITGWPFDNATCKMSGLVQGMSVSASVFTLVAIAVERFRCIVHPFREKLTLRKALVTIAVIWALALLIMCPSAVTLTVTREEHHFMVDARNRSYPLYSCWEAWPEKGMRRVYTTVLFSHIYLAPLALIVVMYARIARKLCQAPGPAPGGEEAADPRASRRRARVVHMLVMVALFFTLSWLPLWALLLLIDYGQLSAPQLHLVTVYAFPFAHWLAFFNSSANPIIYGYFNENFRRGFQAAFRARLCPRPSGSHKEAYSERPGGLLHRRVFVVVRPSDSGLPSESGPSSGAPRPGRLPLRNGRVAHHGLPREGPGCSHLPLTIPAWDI

[3] = system: NPFF receptors (NPFF1 and NPFF2 subtypes); conditions: cited from earlier work

T1 sequence (Q9EP86 whole entry): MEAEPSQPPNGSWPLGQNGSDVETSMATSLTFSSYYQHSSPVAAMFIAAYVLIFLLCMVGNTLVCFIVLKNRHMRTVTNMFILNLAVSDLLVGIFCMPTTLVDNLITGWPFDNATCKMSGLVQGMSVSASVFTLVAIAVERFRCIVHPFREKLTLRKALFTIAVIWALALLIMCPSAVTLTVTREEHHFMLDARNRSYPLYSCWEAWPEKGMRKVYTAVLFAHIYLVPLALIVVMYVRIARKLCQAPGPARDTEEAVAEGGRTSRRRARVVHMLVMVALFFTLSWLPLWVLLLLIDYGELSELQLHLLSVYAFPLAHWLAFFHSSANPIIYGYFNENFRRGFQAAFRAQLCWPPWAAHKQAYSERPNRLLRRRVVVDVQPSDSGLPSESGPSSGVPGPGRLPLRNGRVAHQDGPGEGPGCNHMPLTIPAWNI

## RFRP-1: RFamide-related peptide derived from Npvf precursor; human sequence MPHSFANLPLRF-NH(2) (SEQ ID NO: 1) (MPHSFANLPLRF-NH2; listed as Homo sapiens)
[1]
  response of GPR147-transfected CHO cell lines: responded specifically

## C[C@H](Cc1ccc2c(c1)OC(C(=O)[O-])(C(=O)[O-])O2)NC[C@H](O)c1cccc(Cl)c1.[Na+].[Na+] [CL 316,243]
[2]
  suppression of Npvf mRNA in hypothalamus compared to saline-treated control mice: did not result in the suppression of Npvf mRNA in hypothalamus

## NC(N)=NCCC[C@@H](NC(=O)C(c1ccccc1)c1ccccc1)C(=O)NCc1ccc(O)cc1 [BIBP3226]
NPFFR1
  binding to NPFFR1: has been shown to bind to NPFFR1

## RFRP-3: RFamide-related peptide derived from Npvf precursor; human sequence VPNLPQRF-NH(2) (SEQ ID NO: 2)
[1]
  response of GPR147-transfected CHO cell lines: responded specifically

## NC(=O)[C@H](Cc1ccccc1)NC(=O)[C@H](CCCN=C(N)N)NC(=O)C12CC3CC(CC(C3)C1)C2 [RF9, adamantylcarbonyl-arginyl-phenylalaninamide]
[3]
  discrimination between NPFF1 and NPFF2 subtypes: does not distinguish between the NPFF1 and NPFF2 subtypes
  selectivity for NPFF receptors: selective for NPFF receptors

— patent US20160257735A1, “REGULATION OF NPVF GENE AND ITS PRODUCTS: A METHOD FOR MODULATING ENERGY IMBALANCE” (Institute of Animal Reproduction and Food Research PAS, priority 2015, published 2016)
